Data: PubChem BioAssay AID248 (DTP/NCI, 2004)
Inconclusive results and toxic doses are left out. Cut-off read from the data, not from the text of the source: active = T/C of 150% or more; inactive = T/C below 125%.

Tested on: L1210 leukemia ip in BDF1 mice, survival T/C
Assay: NCI In Vivo Anticancer Drug Screen. Data for tumor model L1210 Leukemia (intraperitoneal) in B6D2F1 (BDF1) mice
Conditions: endpoint: mean survival time, higher = longer survival
How it was run: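 Survival endpoint. Drug-treated group vs vehicle group, expressed as T divided by C. Tumor passaged by transplantation.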

[1] = dose: 100.0 mg/kg/injection, schedule: Q04DX003 (ip), vehicle: Klucel (hydroxypropylcellulose) (HPC)
[2] = dose: 200.0 mg/kg/injection, schedule: Q04DX003 (ip), vehicle: Klucel (hydroxypropylcellulose) (HPC)
[3] = dose: 400.0 mg/kg/injection, schedule: Q04DX003 (ip), vehicle: Klucel (hydroxypropylcellulose) (HPC)
[4] = dose: 100.0 mg/kg/injection, schedule: Q01DX009 (ip), vehicle: saline
[5] = dose: 100.0 mg/kg/injection, schedule: Q04DX003 (ip), vehicle: saline
[6] = dose: 200.0 mg/kg/injection, schedule: Q01DX009 (ip), vehicle: saline
[7] = dose: 200.0 mg/kg/injection, schedule: Q04DX003 (ip), vehicle: saline
[8] = dose: 400.0 mg/kg/injection, schedule: Q04DX003 (ip), vehicle: saline
[9] = dose: 100.0 mg/kg/injection, schedule: Q01DX009 (ip), vehicle: Klucel (hydroxypropylcellulose) (HPC)
[10] = dose: 100.0 mg/kg/injection, schedule: Q01DX001 (ip), vehicle: saline
[11] = dose: 400.0 mg/kg/injection, schedule: Q01DX001 (ip), vehicle: saline

Measured: T/C

CC1(C)N=C(N)N=C(N)N1c1cccc(CCCCc2cccc(S(=O)(=O)F)c2)c1
inactive: dose: 6.25 mg/kg/injection, schedule: Q01DX009 (ip), vehicle: saline sonified 100 % of control | dose: 6.25 mg/kg/injection, schedule: Q04DX003 (ip), vehicle: saline sonified 93 % of control | dose: 12.5 mg/kg/injection, schedule: Q01DX009 (ip), vehicle: saline sonified 88 % of control | dose: 12.5 mg/kg/injection, schedule: Q04DX003 (ip), vehicle: saline sonified 98 % of control | dose: 25.0 mg/kg/injection, schedule: Q01DX009 (ip), vehicle: saline sonified 92 % of control | dose: 25.0 mg/kg/injection, schedule: Q04DX003 (ip), vehicle: saline sonified 93 % of control

C=COCCCCOC=C
inactive: [1] 113 % of control | [2] 105 % of control | [3] 105 % of control

CN(N=Nc1ccccc1C(=O)NN)C1CCCCC1
inactive: dose: 100.0 mg/kg/injection, schedule: Q01DX009 (ip), vehicle: other 117 % of control | dose: 200.0 mg/kg/injection, schedule: Q01DX009 (ip), vehicle: other 114 % of control

O=C1Nc2ccccc2C1=O
inactive: dose: 50.0 mg/kg/injection, schedule: Q01DX009 (ip), vehicle: saline 92 % of control | [4] 103 % of control | [5] 99 % of control | [6] 103 % of control | [7] 99 % of control | dose: 400.0 mg/kg/injection, schedule: Q01DX009 (ip), vehicle: saline 96 % of control | [8] 99 % of control

CCOC(=O)/C=C/c1cccc([N+](=O)[O-])c1
inactive: [1] 98 % of control | [2] 91 % of control | [3] 101 % of control

O=c1oc2ccccc2c(O)c1Oc1ccccc1
inactive: [5] 98 % of control | [7] 91 % of control | [8] 87 % of control

c1ccc(CSc2ncnc3nc[nH]c23)nc1
inactive: dose: 50.0 mg/kg/injection, schedule: Q04DX003 (ip), vehicle: saline sonified 116 % of control | dose: 100.0 mg/kg/injection, schedule: Q04DX003 (ip), vehicle: saline sonified 113 % of control

O=[N+]([O-])c1cc[n+]([O-])cc1
inactive: dose: 6.25 mg/kg/injection, schedule: Q01DX009 (ip), vehicle: saline with Tween-80 98 % of control | dose: 6.25 mg/kg/injection, schedule: Q04DX003 (ip), vehicle: saline with Tween-80 96 % of control | dose: 12.5 mg/kg/injection, schedule: Q01DX009 (ip), vehicle: saline with Tween-80 96 % of control | dose: 12.5 mg/kg/injection, schedule: Q04DX003 (ip), vehicle: saline with Tween-80 96 % of control | dose: 25.0 mg/kg/injection, schedule: Q01DX009 (ip), vehicle: saline with Tween-80 91 % of control | dose: 25.0 mg/kg/injection, schedule: Q04DX003 (ip), vehicle: saline with Tween-80 95 % of control

O=c1cc(NCCc2ccccc2)[nH]c(=O)[nH]1
inactive: dose: 100.0 mg/kg/injection, schedule: Q01DX001 (ip), vehicle: Klucel (hydroxypropylcellulose) (HPC) 93 % of control | dose: 200.0 mg/kg/injection, schedule: Q01DX001 (ip), vehicle: Klucel (hydroxypropylcellulose) (HPC) 95 % of control | dose: 400.0 mg/kg/injection, schedule: Q01DX001 (ip), vehicle: Klucel (hydroxypropylcellulose) (HPC) 105 % of control

CC1SC(=S)N(c2ccc(Cl)cc2)C1=O (stereo not given)
inactive: [9] 115 % of control | [1] 98 % of control | dose: 200.0 mg/kg/injection, schedule: Q01DX009 (ip), vehicle: Klucel (hydroxypropylcellulose) (HPC) 110 % of control | [2] 106 % of control

N#Cc1ccccc1CC(O)(c1ccccc1)c1ccccc1
inactive: dose: 50.0 mg/kg/injection, schedule: Q01DX001 (ip), vehicle: saline 96 % of control | [10] 102 % of control | dose: 200.0 mg/kg/injection, schedule: Q01DX001 (ip), vehicle: saline 93 % of control | [11] 91 % of control

COC(=O)/C=C(\C(=O)OC)n1ccccc1=O
inactive: dose: 5.0 mg/kg/injection, schedule: Q01DX001 (ip), vehicle: saline 101 % of control | dose: 10.0 mg/kg/injection, schedule: Q01DX001 (ip), vehicle: saline 98 % of control | dose: 20.0 mg/kg/injection, schedule: Q01DX001 (ip), vehicle: saline 95 % of control | dose: 40.0 mg/kg/injection, schedule: Q01DX001 (ip), vehicle: saline 102 % of control

N=C(N)N/N=C(\C=N\NC(=N)N)c1ccc(Oc2ccc(C(/C=N/NC(=N)N)=N\NC(=N)N)cc2)cc1
inactive: dose: 3.8 mg/kg/injection, schedule: Q01DX Z (ip), vehicle: saline 98 % of control | dose: 7.5 mg/kg/injection, schedule: Q01DX Z (ip), vehicle: saline 114 % of control | dose: 15.0 mg/kg/injection, schedule: Q01DX Z (ip), vehicle: saline 118 % of control

CN(C)/N=C/C=C/c1ccccc1
inactive: dose: 25.0 mg/kg/injection, schedule: Q01DX009 (ip), vehicle: Klucel (hydroxypropylcellulose) (HPC) 98 % of control | dose: 50.0 mg/kg/injection, schedule: Q01DX009 (ip), vehicle: Klucel (hydroxypropylcellulose) (HPC) 102 % of control | dose: 50.0 mg/kg/injection, schedule: Q04DX003 (ip), vehicle: Klucel (hydroxypropylcellulose) (HPC) 100 % of control | [9] 88 % of control | [4] 105 % of control | [1] 99 % of control | [5] 98 % of control | [6] 100 % of control | [2] 97 % of control | [7] 97 % of control | [8] 102 % of control

C[C@]12CC[C@@H]3c4ccccc4CC[C@H]3[C@@H]1CC[C@@H]2O
inactive: dose: 62.5 mg/kg/injection, schedule: Q01DX015 (sc), vehicle: steriod suspending solution 97 % of control | dose: 125.0 mg/kg/injection, schedule: Q01DX015 (sc), vehicle: steriod suspending solution 101 % of control | dose: 250.0 mg/kg/injection, schedule: Q01DX015 (sc), vehicle: steriod suspending solution 100 % of control | dose: 500.0 mg/kg/injection, schedule: Q01DX015 (sc), vehicle: steriod suspending solution 100 % of control

CCCCCC(O)(CCCC)CCCC
inactive: dose: 100.0 mg/kg/injection, schedule: Q01DX001 (ip), vehicle: carboxymethylcellulose (CMC) 104 % of control | dose: 200.0 mg/kg/injection, schedule: Q01DX001 (ip), vehicle: carboxymethylcellulose (CMC) 107 % of control | dose: 400.0 mg/kg/injection, schedule: Q01DX001 (ip), vehicle: carboxymethylcellulose (CMC) 102 % of control

O=C(N/N=C\c1cc(=O)[nH]c(=O)[nH]1)c1ccccc1
inactive: [10] 100 % of control

CCC(CCC(C)C1CCC2C3CC=C4CC(OC(=O)Nc5ccccc5)CCC4(C)C3CCC12C)C(C)C (stereo not given)
inactive: dose: 100.0 mg/kg/injection, schedule: Q04DX002 (ip), vehicle: saline with Tween-80 87 % of control | dose: 200.0 mg/kg/injection, schedule: Q04DX002 (ip), vehicle: saline with Tween-80 87 % of control | dose: 400.0 mg/kg/injection, schedule: Q04DX002 (ip), vehicle: saline with Tween-80 94 % of control

CCCCc1ccc(Sc2cccc3c2C(=O)c2c(Sc4ccc(CCCC)cc4)cccc2C3=O)cc1
inactive: dose: 100.0 mg/kg/injection, schedule: Q01DX009 (ip), vehicle: saline with Tween-80 97 % of control | dose: 100.0 mg/kg/injection, schedule: Q04DX003 (ip), vehicle: saline with Tween-80 93 % of control | dose: 200.0 mg/kg/injection, schedule: Q01DX009 (ip), vehicle: saline with Tween-80 102 % of control | dose: 200.0 mg/kg/injection, schedule: Q04DX003 (ip), vehicle: saline with Tween-80 97 % of control | dose: 400.0 mg/kg/injection, schedule: Q01DX009 (ip), vehicle: saline with Tween-80 92 % of control | dose: 400.0 mg/kg/injection, schedule: Q04DX003 (ip), vehicle: saline with Tween-80 97 % of control

CN=C(NN)NCCO
inactive: dose: 175.0 mg/kg/injection, schedule: Q01DX001 (ip), vehicle: saline 96 % of control | dose: 265.0 mg/kg/injection, schedule: Q01DX001 (ip), vehicle: saline 96 % of control | [11] 110 % of control | dose: 600.0 mg/kg/injection, schedule: Q01DX001 (ip), vehicle: saline 98 % of control

CN=C(NC)c1ccc(Cl)c(Cl)c1
inactive: [1] 96 % of control | [2] 98 % of control

COc1ccc(C=C2CCC2)cc1
inactive: dose: 100.0 mg/kg/injection, schedule: Q04DX003 (ip), vehicle: gum acacia 95 % of control | dose: 200.0 mg/kg/injection, schedule: Q04DX003 (ip), vehicle: gum acacia 99 % of control | dose: 400.0 mg/kg/injection, schedule: Q04DX003 (ip), vehicle: gum acacia 99 % of control

Cc1[nH]c(=O)[nH]c(=O)c1N(CCO)CCF
inactive: [5] 98 % of control | [7] 101 % of control | [8] 97 % of control
